Legend:
[1] = system: canonical BMP signaling; experiment: BMP2-induced signaling in aortic valve interstitial cells; assay type: cell-based, mouse; details: cells treated with BMP2 with or without ataciguat
Procedure: To confirm that ataciguat effectively activated sGC in cells, mouse aortic valve interstitial cells (mVICs) were isolated from C57BL6/J mice treated with ataciguat or other sGC agonists as internal controls. […] To determine whether ataciguat could attenuate signaling cascades central to the initiation and progression of valve calcification in vitro, cells were treated with BMP2 with or without ataciguat. In these studies, ataciguat reduced phospho-SMAD1/5/8 signaling (e.g., canonical BMP signaling) as well as expression of osteogenic genes induced by BMP2 (e.g., osterix).

[2] = system: patients with mild-to-moderate calcific aortic valve stenosis; experiment: Phase I clinical trial, 14 days, blood pressure and orthostatic tolerance; assay type: in vivo, human
Text: Phase I clinical trial design: Patients with mild-to-moderate calcific aortic valve stenosis (valve area between 1.0 cm^2 and 2.0 cm^2) with well-preserved left ventricular function (ejection fraction>50%) were recruited for participation in a randomized, double-blind, placebo-controlled trial. After screening, patients were randomized into two groups: • (1) placebo treatment for 14 days, or • (2) ataciguat treatment for 14 days. Patients underwent a series of tests to assess baseline blood pressure (seated and supine body positions), orthostatic tolerance (transition to standing, tilt table testing), and blood tests to assess liver enzyme function.
Combining ataciguat's role as an activator of heme-free sGC with reports of increased systemic oxidative stress in patients with FCAVS (Mourino-Alvarez et al., Int. J Cardiol., 225:99-106 (2016)), it was conceivable that administration of ataciguat could elicit acute hypotension or increase propensity to experience orthostatic hypotension. To investigate this possibility, a randomized, double-blind, placebo-controlled, dose-escalation study was conducted to assess the effects of ataciguat on orthostatic tolerance using both a standing test (highly functional) and a tilt table test (highly sensitive).

[3] = system: LPA-induced BMP signaling; experiment: LPA-induced BMP signaling (Osterix mRNA) in aortic valve interstitial cells; assay type: cell-based; details: 18:0 lyso-PA with ataciguat
Procedure: In vitro cell culture studies: Aortic valve interstitial cells were isolated using an outgrowth method, and were expanded in DMEM/F-10 medium with 10% FBS and studied in passages 2-10. Cells were treated for 24 hours under each experimental condition, at which point mRNA was harvested using lysis buffer. After mRNA isolation and reverse transcription, gene expression was measured using quantitative real-time RT-PCR and Taqman primers. Changes in gene expression were assessed by the ddCt method and expressed as fold-change normalized to control conditions.
Additional studies were conducted in aortic valve interstitial cells to examine the effects of ataciguat on LPA-induced BMP signaling and BMP target gene expression. Cells were treated with 18:0 lyso-PA, with or without ataciguat, and Osterix mRNA levels were determined.

[4] = system: ldlr^−/−/apoB^100/100 mice; experiment: ldlr-deficient, apoB100-only mice on western diet with established aortic valve disease (FCAVS); assay type: in vivo, mouse; details: for relative collagen fiber thicknesses: picrosirius red
Text: Pre-clinical animal studies: ldlr^−/−/apoB^100/100 mice are low density lipoprotein receptor-deficient, apolipoprotein B100-only mice that consistently develop severe, hemodynamically significant calcific aortic valve stenosis. Thus, these mice develop stenosis in a manner suitable for studying the effects of pharmacological interventions on initiation and progression of calcific aortic valve stenosis.
Two groups of ldlr^−/−/apoB^100/100 mice were placed on Western Diet (WD) for six months, a time point that allowed the mice to develop mild-to-moderate valvular stenosis. At the six-month time point, mice were randomized into two groups: • (1) continued western diet (WD)/continued disease progression group, or • (2) continued western diet+ataciguat in food (WD+ATA)/treatment group.
At the nine-month time point, mice underwent echocardiography (high resolution ultrasound) and blood pressure (tail cuff) measurement, and were sacrificed for tissue and molecular analyses of valvular tissue (histology, immunohistochemistry, quantitative real-time RT-PCR).
A therapeutically-relevant treatment strategy in which ldlr-deficient, apoB100-only mice were fed a western diet for six months (to develop mild/moderate FCAVS) followed by western diet plus ataciguat (150 ppm mixed in food).

[5] = 14 days, vs pre-treatment or placebo

Compound: O=C(Nc1ccc(S(=O)(=O)N2CCOCC2)cc1)c1cc(Cl)ccc1NS(=O)(=O)c1ccc(Cl)s1 [ataciguat, 5-chloro-2-[[(5-chloro-2-thienyl)sulfonyl]amino]-N-[4-(4-morpholinylsulfonyl)phenyl]-benzamide]
- expression of osteogenic genes induced by BMP2 (e.g., osterix) [1]: reduced
- phospho-SMAD1/5/8 signaling (canonical BMP signaling) [1]: reduced
- seated systolic and diastolic blood pressure ([2]; 100 mg/day, 14 days): significantly reduced
- seated systolic and diastolic blood pressure ([2]; 200 mg/day, 14 days): did not have a significant effect
- supine systolic and diastolic blood pressure ([2]; 14 days): significantly reduced
- changes in heart rate upon standing ([2]; 14 days, seated to standing): did not significantly or consistently alter
- changes in systolic and diastolic blood pressure upon standing ([2]; 14 days, seated to standing): did not significantly or consistently alter
- blood pressure responses to head-up tilt [2, 5]: did not consistently or significantly alter
- heart rate responses to head-up tilt [2, 5]: did not consistently or significantly alter
- resting blood pressure ([2]; either dose, 14 days): did not significantly alter
- tolerability (side effects and blood pressure regulation) ([2]; humans): well tolerated
- LPA effect on expression of Osterix [3]: dramatically suppressed
- ejection fraction ([4]; WD-fed mice, male and female): not improved further
- canonical TGFβ signaling (SMAD2/3 phosphorylation) in valve tissue ([4]; both male and female mice): increased
- Col1a1 expression (mRNA) ([4]; female mice): significantly reduced
- expression of Col15a1 (mRNA) ([4]; female mice): tended to be reduced
- relative collagen fiber thicknesses ([4]; female mice): increase the fraction of thinner fibers
- aortic valve function (cusp separation distance by echocardiography), male versus female ([4]; long-term treatment): only male mice received a therapeutic benefit
- calcification in valve tissue ([4]; male and female animals): reduced
- SMAD1/5/8 phosphorylation in valve tissue ([4]; male and female mice, three months): significantly attenuated
- markers of osteogenesis Runx2 and SPP1 (mRNA) ([4]; male and female mice, three months, RT-PCR): reduced
- diastolic function (E/e′) ([4]; male mice): significantly improved
- expression of Col15a1 (mRNA) ([4]; male mice): increased
- expression of collagen 1a1 (mRNA) ([4]; male mice): did not significantly affect
- valvular calcium, male versus female ([4]; male mice compared with female mice): Greater reductions in valvular calcium
- progression of valvular dysfunction and associated reductions in left ventricular diastolic function ([4]; male mice only, long-term treatment): significantly attenuated
- relative collagen fiber thicknesses ([4]; male mice): did not impact
- MMP2 expression ([4]; male or female mice): not altered
- pVASP^239 in aortic valve tissue ([4]; mice of both genders, 150 ppm in food, immunohistochemistry): significantly increased
- blood pressure ([4]; mice of either gender, 150 ppm in food): did not alter
- expression of the SMAD2/3 target genes CTGF and COL1A1 ([4]; only in female mice): paradoxically reduced

— patent US12465605B2, “Methods and materials for gender-dependent treatment of cardiovascular dysfunction” (Mayo Foundation for Medical Education and Research, priority 2019, dated 2025)
